22 molecules from ChEMBL document CHEMBL1158442, “Design, synthesis and structure-activity relationships of (1H-pyridin-4-ylidene)amines as potential antimalarials” (Bioorg Med Chem Lett, 2009) can be followed below.

Assay [1] has as its system Plasmodium falciparum. Briefly: Antimalarial activity after 48 hrs against chloroquine-resistant Plasmodium falciparum W2 by [3H]hypoxanthine uptake. The class given is functional, organism-based.
In assay [2] the test system is Plasmodium falciparum. Briefly: Antimalarial activity after 48 hrs against atovaquone-resistant Plasmodium falciparum FCR3 by [3H]hypoxanthine uptake. The class given is functional, organism-based.

The IC50 is the concentration needed to halve the response being measured. With `CCn1cc/c(=N\c2cccc(CCc3ccc(C(F)(F)F)cc3)c2)c(Cl)c1`, the IC50 turned out to be 1.6 µM with Plasmodium falciparum [1] and 1.87 µM in the assay with Plasmodium falciparum [2].

Regarding `CC[N+](C)(CC)Cc1cc(/N=c2\ccn(C)cc2S(=O)(=O)N(C)C)ccc1OC`, the IC50 in the assay with Plasmodium falciparum [1] is > 50 µM; in the assay on Plasmodium falciparum [2], > 10 µM.

For `CCn1cc/c(=N\c2ccc(CCc3ccccc3)cc2)c(Cl)c1`, the IC50 with Plasmodium falciparum [1] was > 10 µM; with Plasmodium falciparum [2], 3.74 µM.

For `CCn1cc/c(=N\c2cccc(CCc3ccccc3)c2)c(N)c1`, the IC50 with Plasmodium falciparum [1] came out at 1.67 µM; in the assay with Plasmodium falciparum [2] it was 2.08 µM.

For the molecule `CCN(CC)Cc1cc(/N=c2\ccn(C)c(C)c2)ccc1O`, the IC50 in the assay with Plasmodium falciparum [1] was determined as 20.7 µM; in the assay with Plasmodium falciparum [2] it was 8.09 µM.

`CCN(CC)Cc1cc(/N=c2\ccn(C)cc2C)ccc1O`: the IC50 in the assay on Plasmodium falciparum [1] was 33 µM; with Plasmodium falciparum [2], > 10 µM.

Take `Cn1cc/c(=N\c2cccc(CCc3ccccc3)c2)c(Cl)c1`: the results for the IC50 in the assay on Plasmodium falciparum [1] and in the assay with Plasmodium falciparum [2] were 4.75 µM and 2.89 µM, respectively.

Take `COc1ccc(CCc2cccc(/N=c3\ccn(C)cc3Cl)c2)cc1`: the IC50 with Plasmodium falciparum [1] is 5.24 µM; with Plasmodium falciparum [2] it was 5.12 µM.

Take `CCn1cc(Cl)c(=Nc2cccc(CCc3ccc(OC(F)(F)F)cc3)c2)c(Cl)c1`: the values for the IC50 in the assay on Plasmodium falciparum [1] and in the assay on Plasmodium falciparum [2] were 0.94 µM and 2.8 µM, respectively.

With `CCN(CC)Cc1cc(N=c2ccn(C)cc2)ccc1O`, the results for the IC50 in the assay with Plasmodium falciparum [1] and with Plasmodium falciparum [2] were 8.61 µM and 7.9 µM, respectively.

For `CCn1cc/c(=N\c2cccc(CCc3ccc(OC(F)(F)F)cc3)c2)c(Cl)c1`, the IC50 in the assay with Plasmodium falciparum [1] came to 1.07 µM; in the assay on Plasmodium falciparum [2], 1.7 µM.

For `CCn1cc/c(=N\c2cccc(CCCc3ccccc3)c2)c(Cl)c1`, the IC50 in the assay with Plasmodium falciparum [1] was 2.43 µM; with Plasmodium falciparum [2], 2.25 µM.

On to `On1cc/c(=N\c2cccc(CCc3ccccc3)c2)c(Cl)c1`, for which the IC50 with Plasmodium falciparum [1] and in the assay on Plasmodium falciparum [2] was > 8900 µM throughout.

As for `CCn1cc/c(=N\c2cccc(CCc3ccccc3)c2)c(Cl)c1`, the IC50 in the assay on Plasmodium falciparum [1] worked out at 3.46 µM; with Plasmodium falciparum [2] it was 3.53 µM.

For `CCn1cc/c(=N\c2cccc(CCc3ccc(Cl)cc3)c2)c(Cl)c1`, the IC50 is 3.24 µM in the assay with Plasmodium falciparum [1] and 2.17 µM in the assay on Plasmodium falciparum [2].

As for `CCn1cc/c(=N\c2cccc(CCc3ccc(OC)cc3)c2)c(Cl)c1`, the values for the IC50 in the assay with Plasmodium falciparum [1] and in the assay with Plasmodium falciparum [2] were 3.44 µM and 3.95 µM, respectively.

For `CCn1cc/c(=N\c2ccccc2CCc2ccccc2)c(Cl)c1`, the IC50 amounted to 6.77 µM in the assay with Plasmodium falciparum [1] and 3.19 µM in the assay with Plasmodium falciparum [2].

As for `Cn1cc/c(=N\c2cccc(CCc3ccccc3)c2)c(N)c1`, the IC50 in the assay on Plasmodium falciparum [1] is 1.47 µM; with Plasmodium falciparum [2], 2.21 µM.

On to `CC[N+](C)(CC)Cc1cc(/N=c2\ccn(C)c(C)c2)ccc1O`, for which the values for the IC50 with Plasmodium falciparum [1] and with Plasmodium falciparum [2] were > 50 µM and 9.86 µM, respectively.

As to `CCn1cc/c(=N\c2cccc(CCc3ccc(OC(F)(F)F)cc3)c2)c(N)c1`, the IC50 turned out to be 3.91 µM in the assay on Plasmodium falciparum [1] and 1.83 µM with Plasmodium falciparum [2].

In the assay on Plasmodium falciparum [2], `O=C1C(O)=C([C@H]2CC[C@H](c3ccc(Cl)cc3)CC2)C(=O)c2ccccc21` [ATOVAQUONE] yielded an IC50 of 1.89 µM.

As to `Cc1nc(C)c(Cl)c(O)c1Cl` [CLOPIDOL], the IC50 in the assay with Plasmodium falciparum [1] came to 9.73 µM; in the assay with Plasmodium falciparum [2] it was 3.37 µM.
